Test results reported in patent US6946458B2, “N-thiolated beta-lactams: novel antibacterial agents for methicillin-resistant Staphylococcus aureus” (University of South Florida, priority 1999, dated 2005).
Read-outs that look alike come from different tables or passages of the source.

Legend:
Experiment in all cases: Kirby-Bauer agar disk diffusion
MRSA USF653 = type: cell-based, Staphylococcus aureus; design: Kirby-Bauer Disc Diffusion Test Results: unit not given here; conditions: for zone of inhibition at 20 µg/disc: Staphylococcus aureus, MRSA
Outline: (§1)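 Test compound (20 μg) was impregnated onto 6-mm disks, air-dried and placed on agar plates inoculated with the β-lactamase-producing MRSA strain. After 24 h the diameter of the growth-inhibition zone was measured in mm. Reported values are triplicate means.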

MRSA USF656 = type: cell-based, Staphylococcus aureus; design: Kirby-Bauer Disc Diffusion Test Results: unit not given here; conditions: for zone of inhibition at 20 µg/disc: Staphylococcus aureus, MRSA
Outline: as §1

MRSA USF657 = type: cell-based, Staphylococcus aureus; design: Kirby-Bauer Disc Diffusion Test Results: unit not given here; conditions: for zone of inhibition at 20 µg/disc: Staphylococcus aureus, MRSA
Outline: as §1

MRSA USF658 = type: cell-based, Staphylococcus aureus; design: Kirby-Bauer Disc Diffusion Test Results: unit not given here; conditions: for zone of inhibition at 20 µg/disc: Staphylococcus aureus, MRSA
Outline: as §1

MRSA USF659 = type: cell-based, Staphylococcus aureus; design: Kirby-Bauer Disc Diffusion Test Results: unit not given here; conditions: for zone of inhibition at 20 µg/disc: Staphylococcus aureus, MRSA
Outline: as §1

Micrococcus luteus = type: cell-based; conditions: 6-mm disks, 20 μg test compound
Outline: (§2)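 Agar disk diffusion used 6-mm air-dried disks carrying 20 μg of compound. Values are mean diameters (mm) of the growth-inhibition zone at 24 h, from triplicate experiments. S. epidermidis and S. simulans were clinical isolates.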

[1] = tested on: Staphylococcus aureus (ATCC 25923); type: cell-based; conditions: 6-mm disks, 20 μg test compound
Outline: as §2

[2] = tested on: Staphylococcus epidermidis; type: cell-based; conditions: 6-mm disks, 20 μg test compound
Outline: as §2

N. gonorrhoeae = type: cell-based, Neisseria gonorrhoeae; conditions: Neisseria gonorrhoeae; Table 1; 6-mm disks, 20 μg test compound, 24 h, triplicate; β-lactamase positive; read-out: zone of growth inhibition, average diameter
Method: In this study, a selection of N-methylthio-substituted β-lactams are examined for antimicrobial activity by the Kirby-Bauer disk diffusion method on agar plates. A variety of common Gram-positive and Gram-negative bacteria are tested, including clinical isolates of methicillin-resistant Staphylococcus aureus (MRSA).
Compound susceptibility measurements are obtained from agar disk diffusion experiments using 6-mm air-dried disks impregnated with 20 μg of the test compound. The values correspond to the average diameters in mm (triplicate experiments) for the zone of growth inhibition observed after 24 h. Staphylococcus aureus (ATCC 25923) and β-lactamase-producing strains of methicillin-resistant Staphylococcus aureus (labeled as MRSA USF652-659) are obtained from Lakeland Regional Medical Center, Lakeland, Fla. Staphylococcus epidermidis, Staphylococcus simulans, Staphylococcus simulans, and Microcossus luteus are clinical isolates from University of South Florida Medical Clinic. Nieserria gonnorhoeae (β-lactamase positive) is obtained from the Tampa Branch State Laboratory. PenG is penicillin G (potassium salt). Table 1 provides the zones of growth inhibition that are observed after 24 hours using the lactams of FIGS. 1A-1I (designated A-I, respectively).

Staph aureus 525 = type: cell-based, Staphylococcus aureus
[3] = Table 1, 6-mm disks, 20 μg test compound, 24 h, triplicate, read-out: zone of growth inhibition, average diameter
[4] = Table 4, 20 μg disk loading, read-out: Zones of Inhibition
[5] = Table 6, 20 μg disk loading, read-out: The Zone of Inhibition
[6] = Table 3, 6-mm disks, 20 μg test compound, 24 hours
[7] = Table 5, beta-lactamase producing strain

CC1(C)S[C@@H]2[C@H](NC(=O)Cc3ccccc3)C(=O)N2[C@H]1C(=O)O [PenG, penicillin G, reference compound]
zone of inhibition at 20 µg/disc (MRSA USF653; [3]): 16 mm | zone of inhibition at 20 µg/disc (MRSA USF653; [4]): 15 mm | zone of inhibition at 20 µg/disc (MRSA USF653; [5]): 15 mm | zone of growth inhibition, average diameter (MRSA USF653; [6]): 16 mm | Kirby-Bauer Disc Diffusion Test Results (MRSA USF653; [7]): 15 | zone of inhibition at 20 µg/disc (MRSA USF656; [3]): 12 mm | zone of inhibition at 20 µg/disc (MRSA USF656; [4]): 12 mm | zone of inhibition at 20 µg/disc (MRSA USF656; [5]): 10 mm | zone of growth inhibition, average diameter (MRSA USF656; [6]): 12 mm | Kirby-Bauer Disc Diffusion Test Results (MRSA USF656; [7]): 10 | zone of inhibition at 20 µg/disc (MRSA USF657; [3]): 12 mm | zone of inhibition at 20 µg/disc (MRSA USF657; [4]): 12 mm | zone of inhibition at 20 µg/disc (MRSA USF657; [5]): 12 mm | zone of growth inhibition, average diameter (MRSA USF657; [6]): 12 mm | Kirby-Bauer Disc Diffusion Test Results (MRSA USF657; [7]): 12 | zone of inhibition at 20 µg/disc (MRSA USF658; [3]): 19 mm | zone of inhibition at 20 µg/disc (MRSA USF658; [4]): 19 mm | zone of inhibition at 20 µg/disc (MRSA USF658; [5]): 18 mm | zone of growth inhibition, average diameter (MRSA USF658; [6]): 19 mm | Kirby-Bauer Disc Diffusion Test Results (MRSA USF658; [7]): 18 | zone of inhibition at 20 µg/disc (MRSA USF659; [3]): 15 mm | zone of inhibition at 20 µg/disc (MRSA USF659; [4]): 15 mm | zone of inhibition at 20 µg/disc (MRSA USF659; [5]): 16 mm | zone of growth inhibition, average diameter (MRSA USF659; [6]): 15 mm | Kirby-Bauer Disc Diffusion Test Results (MRSA USF659; [7]): 16 | zone of inhibition at 20 µg/disc (Micrococcus luteus; Micrococcus luteus, Table 1, 24 h, triplicate, read-out: zone of growth inhibition, average diameter): 40 mm | zone of growth inhibition, average diameter (Micrococcus luteus; Table 3, 24 hours): 40 mm | zone of inhibition at 20 µg/disc ([1]; Staphylococcus aureus, ATCC25923, Table 1, 24 h, triplicate, read-out: zone of growth inhibition, average diameter): 34 mm | zone of growth inhibition, average diameter ([1]; Table 3, 24 hours): 34 mm | zone of inhibition at 20 µg/disc ([2]; Staphylococcus epidermidis, Table 1, 24 h, triplicate, read-out: zone of growth inhibition, average diameter): 50 mm | zone of growth inhibition, average diameter ([2]; Table 3, 24 hours): 50 mm | zone of inhibition at 20 µg/disc (N. gonorrhoeae): 0 mm | zone of inhibition at 20 µg/disc (Staph aureus 525; Staphylococcus aureus, 525, Table 4, 20 μg disk loading, read-out: Zones of Inhibition): 33 mm | Kirby-Bauer Disc Diffusion Test Results (Staph aureus 525; Table 5): 33
